Measured values taken from PubChem BioAssay (NCI).
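These data come from cells grown in 96-well plates and exposed to compound for 48 hours at five concentrations. Definition used: TGI = concentration required for complete inhibition of growth.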

Experiments:
Assay in all cases: NCI tumour cell line growth inhibition, 48 h
OVCAR-4 ovarian = tested on: OVCAR-4 ovarian
SR leukemia = tested on: SR leukemia
OVCAR-8 ovarian = tested on: OVCAR-8 ovarian
SK-MEL-28 melanoma = tested on: SK-MEL-28 melanoma
HL-60(TB) leukemia = tested on: HL-60(TB) leukemia
SK-MEL-2 melanoma = tested on: SK-MEL-2 melanoma
SF-268 CNS = tested on: SF-268 CNS
KM12 colon = tested on: KM12 colon
A549 NSCLC = tested on: A549 NSCLC
KM20L2 colon = tested on: KM20L2 colon
M19-MEL melanoma = tested on: M19-MEL melanoma
EKVX NSCLC = tested on: EKVX NSCLC
SF-295 CNS = tested on: SF-295 CNS
NCI-H522 lung = tested on: NCI-H522 lung
SF-539 CNS = tested on: SF-539 CNS
RPMI-8226 leukemia = tested on: RPMI-8226 leukemia
HCT-116 colon = tested on: HCT-116 colon
K-562 leukemia = tested on: K-562 leukemia
IGROV1 ovarian = tested on: IGROV1 ovarian
RXF-631 renal = tested on: RXF-631 renal
RXF 393 renal = tested on: RXF 393 renal
CAKI-1 renal = tested on: CAKI-1 renal
LOX IMVI melanoma = tested on: LOX IMVI melanoma
M14 melanoma = tested on: M14 melanoma
786-0 renal = tested on: 786-0 renal
UO-31 renal = tested on: UO-31 renal
LXFL 529 NSCLC = tested on: LXFL 529 NSCLC
UACC-257 melanoma = tested on: UACC-257 melanoma
NCI-H460 lung = tested on: NCI-H460 lung
MOLT-4 leukemia = tested on: MOLT-4 leukemia
OVCAR-5 ovarian = tested on: OVCAR-5 ovarian
HCT-15 colon = tested on: HCT-15 colon
A498 renal = tested on: A498 renal
COLO 205 colon = tested on: COLO 205 colon
SK-OV-3 ovarian = tested on: SK-OV-3 ovarian
SNB-78 CNS = tested on: SNB-78 CNS
TK-10 renal = tested on: TK-10 renal
HOP-18 NSCLC = tested on: HOP-18 NSCLC
ACHN renal = tested on: ACHN renal
SK-MEL-5 melanoma = tested on: SK-MEL-5 melanoma
DLD-1 colon = tested on: DLD-1 colon
SNB-75 CNS = tested on: SNB-75 CNS
SNB-19 CNS = tested on: SNB-19 CNS
MALME-3M melanoma = tested on: MALME-3M melanoma
UACC-62 melanoma = tested on: UACC-62 melanoma
XF 498 CNS = tested on: XF 498 CNS
CCRF-CEM leukemia = tested on: CCRF-CEM leukemia
DMS 273 small cell lung = tested on: DMS 273 small cell lung
SW-620 colon = tested on: SW-620 colon
HOP-62 NSCLC = tested on: HOP-62 NSCLC
HT29 colon = tested on: HT29 colon
U251 CNS = tested on: U251 CNS
HCC-2998 colon = tested on: HCC-2998 colon
SN12C renal = tested on: SN12C renal
NCI-H23 lung = tested on: NCI-H23 lung
OVCAR-3 ovarian = tested on: OVCAR-3 ovarian
MCF7 breast = tested on: MCF7 breast
NCI-H226 lung = tested on: NCI-H226 lung
SN12K1 renal = tested on: SN12K1 renal
NCI/ADR-RES ovarian = tested on: NCI/ADR-RES ovarian
HOP-92 NSCLC = tested on: HOP-92 NSCLC
P388/ADR leukemia = tested on: P388/ADR leukemia
DMS 114 small cell lung = tested on: DMS 114 small cell lung
P388 leukemia = tested on: P388 leukemia

With `C=C1C(=O)OC2CCCCC3OC3C12` (stereo unspecified) the TGI (OVCAR-4 ovarian) was 28.7 µM, the TGI (SR leukemia) was 53.1 µM and the TGI (OVCAR-8 ovarian) was 32.4 µM. The TGI (SK-MEL-28 melanoma) was 23.9 µM, the TGI (HL-60(TB) leukemia) was 9.72 µM and the TGI (SK-MEL-2 melanoma) was 27.5 µM. For the same compound, the TGI (SF-268 CNS) was 31.1 µM, the TGI (KM12 colon) was 31.8 µM and the TGI (A549 NSCLC) was 40.2 µM. The TGI (KM20L2 colon) was 22.8 µM, the TGI (M19-MEL melanoma) was 35.1 µM and the TGI (EKVX NSCLC) was 34.6 µM. It also gave a TGI (SF-295 CNS) of 48.6 µM, a TGI (NCI-H522 lung) of 3.91 µM and a TGI (SF-539 CNS) of 28.1 µM. The TGI (RPMI-8226 leukemia) was 27.4 µM, the TGI (HCT-116 colon) was 13 µM and the TGI (K-562 leukemia) was 70.5 µM. For the same compound, the TGI (IGROV1 ovarian) was 33.4 µM, the TGI (RXF-631 renal) was 19.2 µM and the TGI (RXF 393 renal) was 30.1 µM. For the same compound, the TGI (CAKI-1 renal) was 9.83 µM, the TGI (LOX IMVI melanoma) was 31.9 µM and the TGI (M14 melanoma) was 20.4 µM. For the same compound, the TGI (786-0 renal) was 19.8 µM, the TGI (UO-31 renal) was 28.8 µM and the TGI (LXFL 529 NSCLC) was 20.2 µM. The TGI (UACC-257 melanoma) was 26.5 µM, the TGI (NCI-H460 lung) was 28.3 µM and the TGI (MOLT-4 leukemia) was 33.2 µM. The TGI (OVCAR-5 ovarian) was 32.3 µM, the TGI (HCT-15 colon) was 19.9 µM and the TGI (A498 renal) was 29.1 µM. It also gave a TGI (COLO 205 colon) of 11.5 µM, a TGI (SK-OV-3 ovarian) of 32 µM and a TGI (SNB-78 CNS) of 56.5 µM. For the same compound, the TGI (TK-10 renal) was 26.7 µM, the TGI (HOP-18 NSCLC) was 23.3 µM and the TGI (ACHN renal) was 23 µM. It also gave a TGI (SK-MEL-5 melanoma) of 19.5 µM, a TGI (DLD-1 colon) of 23.4 µM and a TGI (SNB-75 CNS) of 59.1 µM. For the same compound, the TGI (SNB-19 CNS) was 36.8 µM, the TGI (MALME-3M melanoma) was 23.1 µM and the TGI (UACC-62 melanoma) was 13.7 µM. It also gave a TGI (XF 498 CNS) of 24.7 µM, a TGI (CCRF-CEM leukemia) of 20.2 µM and a TGI (DMS 273 small cell lung) of 23.8 µM. For the same compound, the TGI (SW-620 colon) was 13.3 µM, the TGI (HOP-62 NSCLC) was 41.3 µM and the TGI (HT29 colon) was 32.2 µM. The TGI (U251 CNS) was 23 µM, the TGI (HCC-2998 colon) was 23.9 µM and the TGI (SN12C renal) was 21.3 µM. For the same compound, the TGI (NCI-H23 lung) was 32.6 µM and the TGI (OVCAR-3 ovarian) was 26.5 µM.

Compound `COC1/C=C\C=C(/C)C(=O)NC2=CC(=O)C=C(C2=O)C(OC)C(C)CC(OC)C(OC)C(C)/C=C(/C)C1OC(N)=O` (stereo unspecified) has a TGI (OVCAR-4 ovarian) of 21.8 µM, a TGI (OVCAR-8 ovarian) of 5.62 µM and a TGI (SK-MEL-28 melanoma) of 19.8 µM. The TGI (HL-60(TB) leukemia) was 0.554 µM, the TGI (SK-MEL-2 melanoma) was 20.5 µM and the TGI (SF-268 CNS) was 26.6 µM. For the same compound, the TGI (KM12 colon) was 20.1 µM, the TGI (A549 NSCLC) was 32.4 µM and the TGI (KM20L2 colon) was 17.2 µM. The TGI (M19-MEL melanoma) was 18 µM, the TGI (EKVX NSCLC) was 20.9 µM and the TGI (MCF7 breast) was 8.37 µM. It also gave a TGI (SF-295 CNS) of 35.4 µM, a TGI (NCI-H522 lung) of 1.1 µM and a TGI (SF-539 CNS) of 20.4 µM. The TGI (RPMI-8226 leukemia) was 12.1 µM, the TGI (NCI-H226 lung) was 37 µM and the TGI (HCT-116 colon) was 10.3 µM. The TGI (K-562 leukemia) was 1.44 µM, the TGI (IGROV1 ovarian) was 26 µM and the TGI (CAKI-1 renal) was 26.3 µM. For the same compound, the TGI (LOX IMVI melanoma) was 13.8 µM, the TGI (SN12K1 renal) was 14.7 µM and the TGI (UO-31 renal) was 30 µM. For the same compound, the TGI (UACC-257 melanoma) was 19.6 µM, the TGI (NCI-H460 lung) was 27.2 µM and the TGI (MOLT-4 leukemia) was 1.25 µM. The TGI (OVCAR-5 ovarian) was 28.8 µM, the TGI (HCT-15 colon) was 15.4 µM and the TGI (A498 renal) was 28.4 µM. It also gave a TGI (COLO 205 colon) of 11.4 µM, a TGI (SK-OV-3 ovarian) of 27.8 µM and a TGI (SNB-78 CNS) of 17.2 µM. It also gave a TGI (SK-MEL-5 melanoma) of 20.9 µM, a TGI (NCI/ADR-RES ovarian) of 21.8 µM and a TGI (HOP-92 NSCLC) of 4.52 µM. For the same compound, the TGI (P388/ADR leukemia) was 3.47 µM, the TGI (DLD-1 colon) was 8.02 µM and the TGI (SNB-75 CNS) was 31.6 µM. For the same compound, the TGI (SNB-19 CNS) was 30.7 µM, the TGI (MALME-3M melanoma) was 0.826 µM and the TGI (UACC-62 melanoma) was 15.7 µM. It also gave a TGI (XF 498 CNS) of 4.83 µM, a TGI (CCRF-CEM leukemia) of 1.85 µM and a TGI (DMS 273 small cell lung) of 27.3 µM. The TGI (SW-620 colon) was 2.8 µM, the TGI (HOP-62 NSCLC) was 8.05 µM and the TGI (HT29 colon) was 12.1 µM. For the same compound, the TGI (U251 CNS) was 25.8 µM, the TGI (HCC-2998 colon) was 15.9 µM and the TGI (DMS 114 small cell lung) was 10.1 µM. The TGI (SN12C renal) was 19 µM, the TGI (NCI-H23 lung) was 16 µM and the TGI (OVCAR-3 ovarian) was 7.23 µM.

For `C=CCn1c2ccccc2c2c(C)c3cnccc3c(C)c21`, the TGI (OVCAR-4 ovarian) was 64.2 µM, the TGI (OVCAR-8 ovarian) was 40.4 µM and the TGI (SK-MEL-28 melanoma) was greater than 125 µM. For the same compound, the TGI (HL-60(TB) leukemia) was 11.9 µM, the TGI (SK-MEL-2 melanoma) was greater than 71 µM and the TGI (SF-268 CNS) was 88.7 µM. It also gave a TGI (KM12 colon) of 83.9 µM, a TGI (A549 NSCLC) greater than 97.6 µM and a TGI (KM20L2 colon) of 112 µM. It also gave a TGI (M19-MEL melanoma) of 58 µM, a TGI (EKVX NSCLC) of 66.1 µM and a TGI (MCF7 breast) of 62.6 µM. It also gave a TGI (SF-295 CNS) of 52.5 µM, a TGI (NCI-H522 lung) of 37.2 µM and a TGI (SF-539 CNS) of 44.5 µM. It also gave a TGI (RPMI-8226 leukemia) of 29.5 µM, a TGI (NCI-H226 lung) of 40.3 µM and a TGI (HCT-116 colon) of 46.9 µM. It also gave a TGI (K-562 leukemia) of 52.2 µM, a TGI (IGROV1 ovarian) of 95.3 µM and a TGI (RXF 393 renal) of 24.5 µM. For the same compound, the TGI (CAKI-1 renal) was 6.75 µM, the TGI (LOX IMVI melanoma) was 60 µM and the TGI (SN12K1 renal) was 52.5 µM. It also gave a TGI (UO-31 renal) of 32.8 µM, a TGI (UACC-257 melanoma) of 41.9 µM and a TGI (NCI-H460 lung) of 37.8 µM. For the same compound, the TGI (MOLT-4 leukemia) was 9.82 µM, the TGI (OVCAR-5 ovarian) was 69.9 µM and the TGI (HCT-15 colon) was greater than 95.5 µM. For the same compound, the TGI (A498 renal) was 49.8 µM, the TGI (COLO 205 colon) was 72.5 µM and the TGI (SK-OV-3 ovarian) was 38.5 µM. The TGI (SNB-78 CNS) was 125 µM, the TGI (HOP-18 NSCLC) was greater than 125 µM and the TGI (SK-MEL-5 melanoma) was 56.9 µM. It also gave a TGI (NCI/ADR-RES ovarian) of 34.4 µM, a TGI (HOP-92 NSCLC) of 29.8 µM and a TGI (P388/ADR leukemia) of 37.3 µM. It also gave a TGI (DLD-1 colon) greater than 121 µM, a TGI (SNB-75 CNS) of 57.4 µM and a TGI (SNB-19 CNS) greater than 78.2 µM. The TGI (MALME-3M melanoma) was 62 µM, the TGI (UACC-62 melanoma) was 41.2 µM and the TGI (XF 498 CNS) was 28.7 µM. The TGI (CCRF-CEM leukemia) was 24.5 µM, the TGI (DMS 273 small cell lung) was 37.7 µM and the TGI (SW-620 colon) was 59.1 µM. It also gave a TGI (HOP-62 NSCLC) of 36.3 µM, a TGI (HT29 colon) of 124 µM and a TGI (U251 CNS) of 81.3 µM. For the same compound, the TGI (HCC-2998 colon) was 104 µM, the TGI (SN12C renal) was greater than 66.2 µM and the TGI (P388 leukemia) was 20.8 µM. The TGI (NCI-H23 lung) was 45.3 µM and the TGI (OVCAR-3 ovarian) was 48.6 µM.
